Laboratory results as given in a melting point compilation (Tetko et al.).

| melting point [°C] | Structure (SMILES) |
| --- | --- |
| 221 | Cc1cc(O)c(C(C)C)cc1C1(c2cc(C(C)C)c(O)cc2C)OS(=O)(=O)c2ccccc21 |
| 139 | CCn1c2ccc(Br)cc2c2cc(Br)ccc21 |
| 130 to 131 | CC(C)(C)c1cc(C(=Nc2ccccc2)Nc2ccccc2)cc(C(C)(C)C)c1O |
| 140 | COc1cc([N+](=O)[O-])cc(C=O)c1O |
| 158 | COc1ccc(/N=N/c2sc(CC#N)nc2C)cc1 |
| 147 | O=C(O)Cc1ccc(O)c([N+](=O)[O-])c1 |
| 174 to 176 | NC(=O)NNc1ccccc1 |
| 72 | COC(=O)c1cc(Br)ccc1N |
| 288 | O=C(O)c1ccccc1SSc1ccccc1C(=O)O |
| -27 | ClCCCc1ccccc1 |
| 124 | CC1(C(=O)O)CCC(C=Cc2ccccc2)C1(C)C (stereo not given) |
| 56 to 57 | Nc1ccccc1Cn1cncn1 |
| 248 | Nc1ccc(S(=O)(=O)Nc2cnc3ccccc3n2)cc1 |
| 88.6 | COc1c(C(C)(C)C(C)C)c2nc3ccccc3nc2c2ccccc12 |
| 188 to 189 | CCCCc1c(C)nc(NC(=O)NS(=O)(=O)c2cccs2)nc1Cl |
| 107 to 109 | C=C1c2cc(OC)c(OC)cc2CCN1C(C)=O |
| 301 to 302 | O=C1NC(=O)c2cccc3cccc1c23 |
| 214 to 215 | O=C1OC(c2ccccc2)=NC1=Cc1ccc([N+](=O)[O-])cc1 |
| 162 to 165 | CC(=NO)c1ccn(S(=O)(=O)c2ccccc2)c1 |
| 160 to 163 | CNc1ccc(C(=O)O)cc1 |
| 150 | N=C(N)N(c1ccccc1)c1ccccc1 |
| 105 to 107 | C=CCC(=O)N1CCN(C(=O)OCC2c3ccccc3-c3ccccc32)CC1 |
| -2 | COC(=O)c1ccc(C)cc1C |
| 122 | O=C(O)c1ccccc1 |

| melting point [°C] | Structure (SMILES) |
| --- | --- |
| 216 | Nc1c(O)cccc1[N+](=O)[O-] |
| 137 | O=C1C=C(NCCCCc2ccccc2)C(=O)c2ccccc21 |
| 169 | O=C(c1noc(-c2ccc(Cl)cc2)c1S(=O)(=O)c1ccccc1)c1cccc2ccccc12 |
| 111 | CC1(C)OC(C)(C(OC(=O)c2ccc(Br)cc2)C2CCCCC2)CCC1C(=O)O (stereo not given) |
| 143 | CCCCCCCCOc1ccc(NC(=O)c2ccc(CC)cc2)cc1 |
| 29.5 | COc1ccc(N)c(C)c1 |
| 183 | CON(C)C(=O)C=P(c1ccccc1)(c1ccccc1)c1ccccc1 |
| 93 | Cc1ccc(C=C2C(=O)OC(C)(C)OC2=O)o1 |
| 164 to 166 | Nc1cc(-c2ccc(F)cc2)nc(N)n1 |
| 177 | CSC(=Nc1ccccc1)C(C#N)=C(N)SC |
| 105 | Cc1ccc(C(O)c2ccccc2O)cc1 (stereo not given) |
| 117 | CC(=O)Nc1ccccc1CCc1ccccc1 |
| 148 to 151 | O=C(O)C(c1ccccc1)C1CCCCC1 (stereo not given) |
| 70.5 | CC(=O)Cc1ccccc1C(=O)OCC(=O)N(C)CCO |
| 70 | Cc1ccc(Br)c(C)c1[N+](=O)[O-] |
| 47 | O=c1occc2ccccc12 |
| 156 to 161 | O=C(O)COc1cccc([N+](=O)[O-])c1 |
| 140 | Nc1ccc(C(=O)O)c(N)c1 |
| 106 | Oc1ccc(O)c(Cc2ccccc2)c1 |
| 42 to 48 | Cc1cccc(CO)c1[N+](=O)[O-] |
| 332 | O=C(Nc1ccc(C#Cc2ccc(NC(=O)c3ccccc3)cc2)cc1)c1ccccc1 |
| 141 | O=C(O)COc1ccc(Cl)cc1CO |
| 34 | Oc1ccc(S)cc1 |
| 118 to 120 | CCOc1ccc(-c2nnc3n2NCS3)cc1 |

| melting point [°C] | Structure (SMILES) |
| --- | --- |
| 115 to 118 | Cc1ccc(C)c(C(O)C(=O)O)c1 (stereo not given) |
| 187 to 190 | COC(=O)c1ccc(C(=O)O)nc1 |
| -36 | CCCCCCCCc1ccccc1 |
| 163 | CCc1ccc(C(N)=O)cc1 |
| 148 | CC12CCCC1C1CCC3CC(OCc4ccccc4)CCC3(C)C1CC2 (stereo not given) |
| 115 to 118 | NC(=O)c1c(N)cccc1F |
| 144 to 148 | O=C(c1ccccc1)c1ccc(O)c(O)c1 |
| 129 | COc1ccccc1C(N)=O |
| 98.5 to 100 | COc1ccc(-c2cc3ccccc3cn2)cc1 |
| 140 to 143 | CC(C)n1nnc2cc(C(=O)Cl)ccc21 |
| 229 | N#CC(=Cc1cccnc1)C1N=c2ccccc2=N1 |
| 178 | ON=Cc1ccc2c(Br)cccc2c1 |
| 152 | O=C(Nc1ccccc1)OCC1(COC(=O)Nc2ccccc2)CCCC1 |
| 173 | O=C(CBr)c1ccc(C(=O)CBr)cc1 |
| 67 to 68 | CC(=O)c1sc(-c2ccccc2)nc1C |
| 148 | O=C(C(=O)c1ccc2c3c(cccc13)CC2)c1ccccc1 |
| 230 | O=C1C=C(NCc2ccc(Cl)cc2)C(=O)c2ccccc21 |
| 25.8 | Cc1c(Cl)cccc1Cl |
| 77 | Nc1ccc(SSc2ccc(N)cc2)cc1 |
| 80 | CC(=Cc1ccccc1)C(=O)O |
| 360 | COC(=O)NC=Cc1ccc(C=CNC(=O)OC)cc1 |
| 177 | COc1ccccc1C=CC(=O)c1ccc(O)cc1O |

The next lines start with the molecule.

| Structure (SMILES) | melting point [°C] |
| --- | --- |
| COc1ccc2nc(C#N)sc2c1 | 128 to 131 |
| Cc1ccc(C(N)=NO)cc1F | 105 to 107 |
| O=C(O)CCCCC1CCSS1 (stereo not given) | 60.5 |
| CC1CC(=O)C(=O)C1C (stereo not given) | 64 to 69 |
| NCCCCCCCCCN | 38 |
| Cc1cnc2c(ccc3c(C)c(C)cnc32)c1C | 278 |
| Nc1nc(O)cc(O)n1 | 300 |
| CC(C)(C)Oc1ncc(Br)c(OC(C)(C)C)n1 | 60 |
| O=C(O)C1CC1(F)F (stereo not given) | 58 |
| C1CCC2OCCOCCOC3CCCCC3OCCOCCOC2C1 (stereo not given) | 66 to 70 |
| NS(=O)(=O)c1c(F)cccc1F | 190 |
| CCCC1COC(c2ccc(C#N)cc2)OC1 (stereo not given) | 57.5 |
| CC1=CC(=O)CC(C)(C)C1=O | 26 to 28 |
| O=C(NCO)NCO | 126 |
| O=C1OCc2cc(Br)ccc21 | 162 to 166 |
| COc1ccc2c(c1O)-c1c3c(cc4c1C(C2)N(C)CC4)OCO3 (stereo not given) | 200 |
| Cc1ncc([N+](=O)[O-])n1CC(C)O (stereo not given) | 76 |
| Cc1nc(-c2ccc(C(F)(F)F)cc2)sc1CBr | 64 to 65 |
| CC1=C(C(=O)Nc2ccccc2)SCCO1 | 91.5 |
| O=C(O)CCCCCC1NC(=O)CS1 (stereo not given) | 140 |
| COc1cc(C2c3cc4c(cc3C(OC3OC5COC(c6cccs6)OC5C(O)C3O)C3COC(=O)C23)OCO4)cc(OC)c1O (stereo not given) | 244 |
| CC(=NO)c1ccc(Cl)cc1Cl | 148 to 151 |

| Structure (SMILES) | melting point [°C] |
| --- | --- |
| CC(C)=C1OC(=O)N(c2cc(OC3CCCC3)c(Cl)cc2F)C1=O | 104 |
| O=S(=O)(Cl)c1cnc(Cl)c(Br)c1 | 68 |
| CSCC(=O)O | 14 |
| Cc1ccc(O)cn1 | 169 |
| CC1CCC2(OC1)OC1CC3C4CCC5CC(O)CCC5(C)C4CC(=O)C3(C)C1C2C (stereo not given) | 266 |
| CCCCCCCC(=O)NN | 88 |
| NC(=S)c1cccc(F)c1 | 110 |
| CCCCCCCCCCCCCCCCCC1CCCCC1 | 38 |
| CNc1ncnc(Cl)c1[N+](=O)[O-] | 134 to 139 |
| COc1cc([N+](=O)[O-])c(Cl)cc1N | 131 to 133 |
| CCOP(=S)(OCC)SCCSCC | -25 |
| N#Cc1c(O)ccc([N+](=O)[O-])c1O | 239 to 240 |
| C=CCNC(N)=S | 78 |
| CCCCCCC(=O)OCCCCC | -50 |
| CC(C)(O)C#CC#CC(C)(C)O | 132 to 134 |
| c1cocn1 | -86 |
| O=C(O)C1C(C(=O)O)C2(Cl)C(Cl)=C(Cl)C1(Cl)C2(Cl)Cl (stereo not given) | 209 |
| CCCCCCCOC(=O)CCC | -57.5 |
| O=C(C=CC1=NC=NC1)NCCc1cnc[nH]1 | 240 to 241 |
| OCCNc1nccnc1Cl | 54 to 58 |
| Nc1c[nH]c(=O)[nH]c1=O | 300 |
| CCCCCCCCC(=O)CCCCCC | 31 |

| Structure (SMILES) | melting point [°C] |
| --- | --- |
| OCc1c(F)ccc(F)c1F | 46 |
| Cc1nn(C)c2sc(C(=O)O)cc12 | 260 |
| c1cncc(C2CCCCN2)c1 (stereo not given) | 9 |
| Cc1cc(Cl)cc(Cl)c1CN | 54 |
| COC(=O)C12C=CC(CC1)C1C(=O)OC(=O)C12 (stereo not given) | 116 to 118 |
| COC(CN1CCN(CC(O)C(OC)c2ccccc2)CC1)c1ccccc1 (stereo not given) | 83 |
| CC12CC(=O)C3C(CCC4=CC(=O)CCC43C)C1CCC2=O (stereo not given) | 222 |
| O=C(O)CC(=O)O | 136 |
| OCCNCCNCCO | 97.5 |
| NS(=O)(=O)c1cc2c(cc1Cl)NC(C1CC3C=CC1C3)NS2(=O)=O (stereo not given) | 234 |
| c1cnc(SSc2ncccn2)nc1 | 139 to 141 |
| CCCC(C)(CO)CO | 62.5 |
| NNC(=O)c1ccc(Cl)cc1 | 164 |
| CCOC(=O)c1c(NC(=O)CCl)sc2c1CCCC2 | 115 to 117 |
| C=CC(C)Cl (stereo not given) | -50 |
| Clc1nccc2occc12 | 41 to 42 |
| Cc1cnc(C)cn1 | 15 |
| CC(C)(N)C(=O)O | 335 |
| OCC1CCCN2CCCCC12 (stereo not given) | 70 |
| CN(c1c(Br)cc(Br)cc1Br)c1c([N+](=O)[O-])cc([N+](=O)[O-])cc1C(F)(F)F | 150 |
| CC1(C(=O)O)CCC2(C)CCC3(C)C(=CC(=O)C4C5(C)CCC(O)C(C)(C)C5CCC43C)C2C1 (stereo not given) | 296 |
